Measured values reported in US6340698B1, “Antifungal solutions” (priority 1999, dated 2002).

How the values were obtained:
Format in all cases: physicochemical
Solubility in water = assay: Solubility in water
[1] = Solubility in strong acids (glacial acetic acid, concentrated hydrochloric acid)
Source text: For example, 1 g of free itraconazole can be dissolved in about 3 g of glacial acetic acid or about 3 to 4 g of concentrated hydrochloric acid (i.e. 36-38% HCl in water).

[2] = Dilution with water of a solution in strong acid; conditions: solution in strong acid diluted with water to weaken the acid
Procedure: However, strongly acidic solutions are unsuitable for oral administration, and if a solution of itraconazole or saperconazole in strong acid is diluted with water to weaken the acid, the itraconazole or saperconazole precipitates.

| Compound | solubility in water (Solubility in water) | solubility in strong acids [1] | behaviour when solution in strong acid is diluted with water [2] |
| --- | --- | --- | --- |
| CCC(C)n1ncn(-c2ccc(N3CCN(c4ccc(OCC5COC(Cn6cncn6)(c6ccc(Cl)cc6Cl)O5)cc4)CC3)cc2)c1=O (centres unmarked) [itraconazole, Itraconazole] | practically insoluble in water | soluble in strong acids |  |
| CCC(C)n1ncn(-c2ccc(N3CCN(c4ccc(OC[C@H]5CO[C@](Cn6cncn6)(c6ccc(F)cc6F)O5)cc4)CC3)cc2)c1=O (some centres unmarked) [saperconazole] | practically insoluble in water | soluble in strong acids | precipitates |
